# According to paper PMC9833666, “Designing and identifying β-hairpin peptide macrocycles with antibiotic potential” (Science Advances, 2023):
# Read-outs that look alike come from different tables or passages of the source. Bridge positions count the residues as written; N and C are the ends. Peptide text beside a SMILES is read from it.
# Tested on: Escherichia coli W3110
# Assay type: cell-based
# Details: for Ec W3110 MIC MH: E. coli W3110, MH medium; for Ec W3110 MIC RPMI: E. coli W3110, RPMI medium
# [1] = E. coli W3110, standard Mueller-Hinton broth, 37°C, 18-24 h, median of n=3
Compound,W3110 MIC (W3110) [mg/L],Ec W3110 MIC MH [mg/L],Ec W3110 MIC RPMI [mg/L],W3110 MIC MH [1] [mg/L],W3110 MIC RPMI (W3110) [mg/L],W3110 MIC MH (W3110) [mg/L]
CC[C@H](C)[C@@H]1NC(=O)[C@H]([C@@H](C)O)NC(=O)[C@H](C(C)C)NC(=O)[C@@H](N)CSSC[C@@H](C(=O)O)NC(=O)[C@H](C(C)C)NC(=O)[C@H](CCC(=O)O)NC(=O)[C@H](C(C)C)NC(=O)[C@H]([C@@H](C)O)NC(=O)[C@H](C(C)C)NC(=O)[C@H](CCCCN)NC(=O)[C@H](C(C)C)NC(=O)CNC(=O)CNC(=O)[C@H](CCCNC(=N)N)NC(=O)CNC(=O)[C@H](CC(N)=O)NC(=O)[C@H](CC(=O)O)NC(=O)[C@H](C(C)C)NC(=O)[C@H](CCCNC(=N)N)NC1=O [SyRA-8] (H-CVTIRVDNGRGGVKVTVEVC-OH; disulfide 1-20),>256,,,,,
CC[C@H](C)[C@@H]1NC(=O)[C@H](CC(=O)O)NC(=O)[C@H]([C@@H](C)CC)NC(=O)[C@H](CCCNC(=N)N)NC(=O)[C@H](C(C)C)NC(=O)[C@H](CCCNC(=N)N)NC(=O)[C@@H](N)CSSC[C@@H](C(=O)O)NC(=O)[C@H](CCC(N)=O)NC(=O)[C@H](CC(C)C)NC(=O)[C@H](CCC(N)=O)NC(=O)[C@H](CC(C)C)NC(=O)[C@H](CCCCN)NC(=O)[C@H](CC(C)C)NC(=O)[C@H](CCCNC(=N)N)NC(=O)[C@H](CCCNC(=N)N)NC(=O)[C@H](CCCNC(=N)N)NC(=O)CNC(=O)[C@H](CC(N)=O)NC(=O)[C@H](CC(N)=O)NC1=O [SyRC-5] (H-CRVRIDINNGRRRLKLQLQC-OH; disulfide 1-20),>256,,,,,
CC[C@H](C)[C@@H]1NC(=O)[C@H]([C@@H](C)O)NC(=O)[C@H](C(C)C)NC(=O)[C@@H](N)CSSC[C@@H](C(=O)O)NC(=O)[C@H](C(C)C)NC(=O)[C@H](CCC(N)=O)NC(=O)[C@H](C(C)C)NC(=O)[C@H]([C@@H](C)O)NC(=O)[C@H](C(C)C)NC(=O)[C@H](CCCNC(=N)N)NC(=O)[C@H](CC(C)C)NC(=O)CNC(=O)[C@H](CCCNC(=N)N)NC(=O)[C@H](CCCNC(=N)N)NC(=O)[C@H](CCCNC(=N)N)NC(=O)[C@H](CC(=O)O)NC(=O)[C@H](CC(=O)O)NC(=O)[C@H](CC(C)C)NC(=O)[C@H](CCCNC(=N)N)NC1=O [SyRA-9] (H-CVTIRLDDRRRGLRVTVQVC-OH; disulfide 1-20),>256,,,,,
CC[C@H](C)[C@@H]1NC(=O)[C@H](CCCNC(=N)N)NC(=O)[C@@H](N)CSSC[C@@H](C(=O)O)NC(=O)[C@H](CCC(N)=O)NC(=O)[C@H](C(C)C)NC(=O)[C@H](CCC(N)=O)NC(=O)[C@H](CC(C)C)NC(=O)[C@H](CCCNC(=N)N)NC(=O)[C@H](C(C)C)NC(=O)[C@H](CCCNC(=N)N)NC(=O)[C@H](CCCNC(=N)N)NC(=O)[C@H](CCCNC(=N)N)NC(=O)[C@H](CCCNC(=N)N)NC(=O)[C@H](CC(N)=O)NC(=O)[C@H](CC(N)=O)NC(=O)[C@H](C(C)C)NC(=O)[C@H](CC(=O)O)NC(=O)[C@H](C(C)C)NC(=O)[C@H](CCCCN)NC1=O [SySA-1] (H-CRIKVDVNNRRRRVRLQVQC-OH; disulfide 1-20; N-terminus and C-terminus assumed),,128,64,128,64,
CC[C@H](C)[C@@H]1NC(=O)[C@H](CCCCN)NC(=O)[C@H](C(C)C)NC(=O)CNC(=O)[C@H](CCCNC(=N)N)NC(=O)[C@H](CCCNC(=N)N)NC(=O)[C@H](CCCNC(=N)N)NC(=O)[C@H](CC(=O)O)NC(=O)[C@H](CC(N)=O)NC(=O)[C@H](CC(C)C)NC(=O)[C@H](CCCNC(=N)N)NC(=O)[C@H]([C@@H](C)CC)NC(=O)[C@H]([C@@H](C)O)NC(=O)[C@H](C(C)C)NC(=O)[C@@H](N)CSSC[C@@H](C(=O)O)NC(=O)[C@H](C(C)C)NC(=O)[C@H](CCC(=O)O)NC(=O)[C@H](C(C)C)NC(=O)[C@H](CO)NC1=O [SyRA-7] (H-CVTIRLNDRRRGVKISVEVC-OH; disulfide 1-20),>256,,,,,
CC[C@H](C)[C@@H]1NC(=O)[C@H](CCCCN)NC(=O)[C@H](CC(C)C)NC(=O)CNC(=O)[C@H](CCCNC(=N)N)NC(=O)[C@H](CCCNC(=N)N)NC(=O)[C@H](CCCNC(=N)N)NC(=O)[C@H](CC(N)=O)NC(=O)[C@H](CC(N)=O)NC(=O)[C@H](CC(C)C)NC(=O)[C@H](CCCNC(=N)N)NC(=O)[C@H](C(C)C)NC(=O)[C@H](CCCNC(=N)N)NC(=O)[C@H](C(C)C)NC(=O)[C@@H](N)CSSC[C@@H](C(=O)O)NC(=O)[C@H](C(C)C)NC(=O)[C@H](CCC(N)=O)NC(=O)[C@H](CC(C)C)NC(=O)[C@H](CO)NC1=O [SySA-9] (H-CVRVRLNNRRRGLKISLQVC-OH; disulfide 1-20; N-terminus and C-terminus assumed),,128,8,128,8,
CC[C@H](C)[C@@H]1NC(=O)[C@H](CC(N)=O)NC(=O)[C@H]([C@@H](C)CC)NC(=O)[C@H](CCCCN)NC(=O)[C@H](C(C)C)NC(=O)[C@H](CCCNC(=N)N)NC(=O)[C@@H](N)CSSC[C@@H](C(=O)O)NC(=O)[C@H](CCC(=O)O)NC(=O)[C@H](C(C)C)NC(=O)[C@H](CCC(=O)O)NC(=O)[C@H](CC(C)C)NC(=O)[C@H](CCCNC(=N)N)NC(=O)[C@H](C(C)C)NC(=O)[C@H](CCCNC(=N)N)NC(=O)[C@H](CCCNC(=N)N)NC(=O)[C@H](CO)NC(=O)CNC(=O)[C@H](CC(N)=O)NC(=O)[C@H](CC(=O)O)NC1=O [SyRC-2] (H-CRVKINIDNGSRRVRLEVEC-OH; disulfide 1-20),>256,,,,,
CC[C@H](C)[C@@H]1NC(=O)[C@H](CCCNC(=N)N)NC(=O)[C@H](CC(C)C)NC(=O)CNC(=O)[C@H](CCCNC(=N)N)NC(=O)[C@H](CCCNC(=N)N)NC(=O)[C@H](CCCNC(=N)N)NC(=O)[C@H](CC(N)=O)NC(=O)[C@H](CC(N)=O)NC(=O)[C@H](CC(C)C)NC(=O)[C@H](CCCNC(=N)N)NC(=O)[C@H](C(C)C)NC(=O)[C@H](CCCNC(=N)N)NC(=O)[C@H](CC(C)C)NC(=O)[C@@H](N)CSSC[C@@H](C(=O)O)NC(=O)[C@H](C(C)C)NC(=O)[C@H](CCC(N)=O)NC(=O)[C@H](CC(C)C)NC(=O)[C@H](CO)NC1=O [SySA-73] (H-CLRVRLNNRRRGLRISLQVC-OH; disulfide 1-20; N-terminus and C-terminus assumed),,32,8,,8,32
CC(C)C[C@@H]1NC(=O)[C@H](CCCNC(=N)N)NC(=O)[C@H](C(C)C)NC(=O)[C@H]([C@@H](C)O)NC(=O)[C@H](CC(C)C)NC(=O)[C@@H](N)CSSC[C@@H](C(=O)O)NC(=O)[C@H](C(C)C)NC(=O)[C@H](CCC(N)=O)NC(=O)[C@H](C(C)C)NC(=O)[C@H](CO)NC(=O)[C@H](C(C)C)NC(=O)[C@H](CCCCN)NC(=O)[C@H](C(C)C)NC(=O)CNC(=O)[C@H](CCCNC(=N)N)NC(=O)[C@H](CCCNC(=N)N)NC(=O)[C@H](CCCNC(=N)N)NC(=O)[C@H](CC(N)=O)NC(=O)[C@H](CC(N)=O)NC1=O [SySA-81] (H-CLTVRLNNRRRGVKVSVQVC-OH; disulfide 1-20; N-terminus and C-terminus assumed),,64,32,,32,64
CC[C@H](C)[C@@H]1NC(=O)[C@H](CCCCN)NC(=O)[C@H](C(C)C)NC(=O)[C@H](CCCNC(=N)N)NC(=O)[C@H](CCCNC(=N)N)NC(=O)[C@H](CCCNC(=N)N)NC(=O)[C@H](CCCNC(=N)N)NC(=O)[C@H](CC(N)=O)NC(=O)[C@H](CC(N)=O)NC(=O)[C@H](CC(C)C)NC(=O)[C@H](CCCNC(=N)N)NC(=O)[C@H](C(C)C)NC(=O)[C@H](CCCNC(=N)N)NC(=O)[C@H](C(C)C)NC(=O)[C@@H](N)CSSC[C@@H](C(=O)O)NC(=O)[C@H](C(C)C)NC(=O)[C@H](CCC(=O)O)NC(=O)[C@H](C(C)C)NC(=O)[C@H](CO)NC1=O [SySA-65] (H-CVRVRLNNRRRRVKISVEVC-OH; disulfide 1-20; N-terminus and C-terminus assumed),,64,16,,16,64
CC[C@H](C)[C@@H]1NC(=O)[C@H](CCCCN)NC(=O)[C@H](CC(C)C)NC(=O)CNC(=O)CNC(=O)[C@H](CCCNC(=N)N)NC(=O)[C@H](CCCNC(=N)N)NC(=O)[C@H](CC(=O)O)NC(=O)[C@H](CC(=O)O)NC(=O)[C@H](C(C)C)NC(=O)[C@H](CCCNC(=N)N)NC(=O)[C@H](C(C)C)NC(=O)[C@H](CCCNC(=N)N)NC(=O)[C@H](C(C)C)NC(=O)[C@@H](N)CSSC[C@@H](C(=O)O)NC(=O)[C@H](C(C)C)NC(=O)[C@H](CCC(N)=O)NC(=O)[C@H](CC(C)C)NC(=O)[C@H](CO)NC1=O [SyRA-12] (H-CVRVRVDDRRGGLKISLQVC-OH; disulfide 1-20),>256,,,,,
CC[C@H](C)[C@@H]1NC(=O)[C@H](CCCCN)NC(=O)[C@H](CC(C)C)NC(=O)[C@H](CCCNC(=N)N)NC(=O)CNC(=O)CNC(=O)[C@H](CCCNC(=N)N)NC(=O)[C@H](CC(N)=O)NC(=O)[C@H](CC(N)=O)NC(=O)[C@H](C(C)C)NC(=O)[C@H](CCCNC(=N)N)NC(=O)[C@H](C(C)C)NC(=O)[C@H]([C@@H](C)O)NC(=O)[C@H](C(C)C)NC(=O)[C@@H](N)CSSC[C@@H](C(=O)O)NC(=O)[C@H](C(C)C)NC(=O)[C@H](CCC(N)=O)NC(=O)[C@H](CC(C)C)NC(=O)[C@H]([C@@H](C)O)NC1=O [SyRA-14] (H-CVTVRVNNRGGRLKITLQVC-OH; disulfide 1-20),>256,,,,,
CC[C@H](C)[C@@H]1NC(=O)[C@H](CCCNC(=N)N)NC(=O)[C@H](C(C)C)NC(=O)CNC(=O)[C@H](CO)NC(=O)[C@H](CCCNC(=N)N)NC(=O)CNC(=O)[C@H](CC(N)=O)NC(=O)[C@H](CC(=O)O)NC(=O)[C@H](CC(C)C)NC(=O)[C@H](CCCNC(=N)N)NC(=O)[C@H](C(C)C)NC(=O)[C@H]([C@@H](C)O)NC(=O)[C@H](C(C)C)NC(=O)[C@@H](N)CSSC[C@@H](C(=O)O)NC(=O)[C@H](C(C)C)NC(=O)[C@H](CCC(N)=O)NC(=O)[C@H](C(C)C)NC(=O)[C@H](CO)NC1=O [SyRA-13] (H-CVTVRLDNGRSGVRISVQVC-OH; disulfide 1-20),>256,,,,,
